# Laboratory results from patent US20240409585A1, “MACROCYCLIC IMMUNOMODULATORS” (priority 2021, published 2024).
# Bridge positions count the residues as written; N and C are the ends. Square brackets hold non-standard residues; d marks the D form. Peptide text beside a SMILES is read from it. * marks the point of attachment. ξ: configuration not given here. Phe(4-COOH) = N[C@@H](Cc1ccc(C(=O)O)cc1)C(=O)O; Bip = N[C@@H](Cc1ccc(-c2ccccc2)cc1)C(=O)O; Phe(3-CN) = N#Cc1cccc(C[C@H](N)C(=O)O)c1; Phe(3-F) = N[C@@H](Cc1cccc(F)c1)C(=O)O; Phe(3-Me) = Cc1cccc(C[C@H](N)C(=O)O)c1; dBta = N[C@H](Cc1csc2ccccc12)C(=O)O; Val(3-OH) = CC(C)(O)[C@H](N)C(=O)O; 4Pal = N[C@@H](Cc1ccncc1)C(=O)O; Cha = N[C@@H](CC1CCCCC1)C(=O)O; Ile(3ξ) = CCC(C)[C@H](N)C(=O)O; Carboxymethyl = O=C(O)C*; NMeA = CN[C@@H](C)C(=O)O; Orn = NCCC[C@H](N)C(=O)O; Pra = C#CC[C@H](N)C(=O)O; Dab = NCC[C@H](N)C(=O)O; Dap = NC[C@H](N)C(=O)O
# Target: T1, PE-labeled human PD-L1-Ig binding to Jurkat cell line over-expressing human PD-1 (Jurkat-PD-1) (Homo sapiens, UniProt Q15116)
# T1 construct: expressed in transfected cells; host or cells: Jurkat
# T1 sequence (Q15116 25-288): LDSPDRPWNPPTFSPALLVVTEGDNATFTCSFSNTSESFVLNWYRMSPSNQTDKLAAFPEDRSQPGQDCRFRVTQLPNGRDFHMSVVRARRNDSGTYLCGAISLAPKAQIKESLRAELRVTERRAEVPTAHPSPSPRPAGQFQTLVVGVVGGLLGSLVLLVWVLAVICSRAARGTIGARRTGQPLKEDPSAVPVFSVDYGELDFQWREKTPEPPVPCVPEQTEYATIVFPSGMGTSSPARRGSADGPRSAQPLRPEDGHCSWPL
# Experiment: Jurkat-PD-1 Cell Binding High-Content Screening Assay (CBA): Method 1
# Details: Jurkat-hPD-1 cells, PE-labeled PD-L1-Ig 20 nM final; read-out: Jurkat HPDL1 PD1 IC50 (uM) (Method 1)
row,SMILES,IC50
1,CC(C)C[C@@H]1NC(=O)[C@H](CCCNC(=N)N)NC(=O)[C@@H](CC(C)C)NC(=O)[C@H](C)N(C)C(=O)[C@H](CCCNC(=N)N)NC(=O)[C@H](Cc2ccc(-c3ccccc3)cc2)NC(=O)[C@H](C(C)C)NC(=O)[C@H](Cc2c[nH]c3ccccc23)NC(=O)[C@H](CC(=O)O)NC(=O)[C@H](Cc2ccc(O)cc2)NC(=O)[C@H](CC(N)=O)NC(=O)CSC[C@@H](C(=O)N[C@@H](C)C(N)=O)NC(=O)[C@H](CCCN)NC(=O)[C@H](C(C)C)NC1=O [Compound 1252] ({CH2CO}-NYDWV[Bip]R[NMeA][dL]RLV[Orn]CA-NH2; thioether N-14),0.09 µM
2,CC(C)C[C@@H]1NC(=O)[C@H](CCN)NC(=O)[C@@H](CC(C)C)NC(=O)[C@H](C)N(C)C(=O)[C@H](CCCNC(=N)N)NC(=O)[C@H](Cc2ccc(-c3ccccc3)cc2)NC(=O)[C@H](C(C)C)NC(=O)[C@H](Cc2c[nH]c3ccccc23)NC(=O)[C@H](CC(=O)O)NC(=O)[C@H](Cc2ccncc2)NC(=O)[C@H](CC(N)=O)NC(=O)CSC[C@@H](C(=O)N[C@@H](C)C(N)=O)NC(=O)[C@H]([C@@H](C)O)NC(=O)[C@H](C(C)C)NC1=O [Compound 1146] ({CH2CO}-N[4Pal]DWV[Bip]R[NMeA][dL][Dab]LVTCA-NH2; thioether N-14),0.06 µM
3,CC(C)C[C@@H]1NC(=O)[C@H](Cc2c[nH]c3ccccc23)NC(=O)[C@H](CC(=O)O)NC(=O)[C@H](Cc2ccncc2)NC(=O)[C@H](Cc2ccc(OCC(=O)O)cc2)NC(=O)CSC[C@@H](C(=O)N[C@@H](CC(N)=O)C(N)=O)NC(=O)[C@H](CO)NC(=O)[C@H](C(C)C)NC(=O)[C@H](CC2CCCCC2)NC(=O)[C@H](CCN)NC(=O)[C@@H](CC(C)C)NC(=O)[C@H](C)N(C)C(=O)[C@H](C(C)C)NC(=O)[C@H](Cc2ccc(-c3ccccc3)cc2)NC1=O [Compound 1901] ({CH2CO}-Y(Carboxymethyl)[4Pal]DWL[Bip]V[NMeA][dL][Dab][Cha]VSCN-NH2; thioether N-14),0.01 µM
4,Cc1cccc(C[C@@H]2NC(=O)[C@H](CC(=O)O)NC(=O)[C@H](Cc3ccc(OCC(=O)O)cc3)NC(=O)[C@H](CC(N)=O)NC(=O)CSC[C@@H](C(N)=O)NC(=O)[C@H](CC(N)=O)NC(=O)[C@H](C(C)C)NC(=O)[C@H](CC3CCCCC3)NC(=O)[C@H](CCN)NC(=O)[C@@H](CC(C)C)NC(=O)[C@H](C)N(C)C(=O)[C@H](Cc3ccc(OCC(=O)O)cc3)NC(=O)[C@H](Cc3ccc(-c4ccccc4)cc3)NC(=O)[C@H](Cc3ccc(OCC(=O)O)cc3)NC2=O)c1 [Compound 1664] ({CH2CO}-NY(Carboxymethyl)D[Phe(3-Me)]Y(Carboxymethyl)[Bip]Y(Carboxymethyl)[NMeA][dL][Dab][Cha]VNC-NH2; thioether N-14),0.05 µM
5,CC(C)C[C@@H]1NC(=O)[C@H](CCN)NC(=O)[C@@H](CC(C)C)NC(=O)[C@H](C)N(C)C(=O)[C@H](Cc2cnc[nH]2)NC(=O)[C@H](Cc2ccc(-c3ccccc3)cc2)NC(=O)[C@H](C(C)C)NC(=O)[C@H](Cc2c[nH]c3ccccc23)NC(=O)[C@H](CC(=O)O)NC(=O)[C@H](Cc2cccc(C#N)c2)NC(=O)[C@H](CN)NC(=O)CSC[C@@H](C(=O)N[C@@H](C)C(N)=O)NC(=O)[C@H]([C@@H](C)O)NC(=O)[C@H](C(C)C)NC1=O [Compound 1432] ({CH2CO}-[Dap][Phe(3-CN)]DWV[Bip]H[NMeA][dL][Dab]LVTCA-NH2; thioether N-14),0.05 µM
6,CCNC(=O)[C@H](CCN)NC(=O)[C@@H]1CSCC(=O)N[C@@H](Cc2ccncc2)C(=O)N[C@@H](Cc2ccc(OCC(=O)O)cc2)C(=O)N[C@@H](CC(=O)O)C(=O)N[C@@H](Cc2cccc(C)c2)C(=O)N[C@@H](Cc2cccc(F)c2)C(=O)N[C@@H](Cc2ccc(-c3ccccc3)cc2)C(=O)N[C@@H](Cc2ccc(OCC(=O)O)cc2)C(=O)N(C)[C@@H](C)C(=O)N[C@H](CC(C)C)C(=O)N[C@@H](CCN)C(=O)N[C@@H](CC2CCCCC2)C(=O)N[C@@H](C(C)(C)O)C(=O)N[C@@H](CO)C(=O)N1 [Compound 1845] ({CH2CO}-[4Pal]Y(Carboxymethyl)D[Phe(3-Me)][Phe(3-F)][Bip]Y(Carboxymethyl)[NMeA][dL][Dab][Cha][Val(3-OH)]SC[Dab]-NHEt; thioether N-14),0.01 µM
7,CCC(C)[C@@H]1NC(=O)[C@H](Cc2ccc(-c3ccccc3)cc2)NC(=O)[C@H](CC(C)C)NC(=O)[C@H](Cc2c[nH]c3ccccc23)NC(=O)[C@H](CC(=O)O)NC(=O)[C@H](Cc2ccc(C(=O)O)cc2)NC(=O)[C@H](Cc2ccc(OCC(=O)O)cc2)NC(=O)CSC[C@@H](C(=O)N[C@@H](CC(N)=O)C(N)=O)NC(=O)[C@H](CO)NC(=O)[C@H](C(C)C)NC(=O)[C@H](CC2CCCCC2)NC(=O)[C@H](CCN)NC(=O)[C@@H](CC(C)C)NC(=O)[C@H](C)N(C)C1=O (stereo partly drawn) [Compound 1917] ({CH2CO}-Y(Carboxymethyl)[Phe(4-COOH)]DWL[Bip][Ile(3ξ)][NMeA][dL][Dab][Cha]VSCN-NH2; thioether N-14),0.04 µM
8,Cc1cccc(C[C@@H]2NC(=O)[C@H](CC(=O)O)NC(=O)[C@H](Cc3ccc(OCC(=O)O)cc3)NC(=O)[C@H](Cc3cnc[nH]3)NC(=O)CSC[C@@H](C(=O)N[C@H](C)C(N)=O)NC(=O)[C@H](CO)NC(=O)[C@H](C(C)(C)O)NC(=O)[C@H](CC3CCCCC3)NC(=O)[C@H](CCN)NC(=O)[C@@H](CC(C)C)NC(=O)[C@H](C)N(C)C(=O)[C@H](Cc3ccc(OCC(=O)O)cc3)NC(=O)[C@H](Cc3ccc(-c4ccccc4)cc3)NC(=O)[C@H](Cc3ccc(C(=O)O)cc3)NC2=O)c1 [Compound 2182] ({CH2CO}-HY(Carboxymethyl)D[Phe(3-Me)][Phe(4-COOH)][Bip]Y(Carboxymethyl)[NMeA][dL][Dab][Cha][Val(3-OH)]SC[dA]-NH2; thioether N-14),0.09 µM
9,C#CC[C@H](NC(=O)[C@H](CCN)NC(=O)[C@@H]1CSCC(=O)N[C@@H]([C@@H](C)O)C(=O)N[C@@H](Cc2ccc(OCC(=O)O)cc2)C(=O)N[C@@H](CC(=O)O)C(=O)N[C@@H](Cc2cccc(C)c2)C(=O)N[C@@H](Cc2ccc(OCC(=O)O)cc2)C(=O)N[C@@H](Cc2ccc(-c3ccccc3)cc2)C(=O)N[C@@H](Cc2ccc(OCC(=O)O)cc2)C(=O)N(C)[C@@H](C)C(=O)N[C@H](CC(C)C)C(=O)N[C@@H](CCN)C(=O)N[C@@H](CC2CCCCC2)C(=O)N[C@@H](C(C)(C)O)C(=O)N[C@@H](CCC(=O)O)C(=O)N1)C(=O)O [Compound 1937] ({CH2CO}-TY(Carboxymethyl)D[Phe(3-Me)]Y(Carboxymethyl)[Bip]Y(Carboxymethyl)[NMeA][dL][Dab][Cha][Val(3-OH)]EC[Dab][Pra]-OH; thioether N-14),0.07 µM
10,CC(C)C[C@@H]1NC(=O)[C@H](CCCNC(=N)N)NC(=O)[C@@H](Cc2csc3ccccc23)NC(=O)[C@H](C)N(C)C(=O)[C@H](CCCNC(=N)N)NC(=O)[C@H](Cc2ccc(-c3ccccc3)cc2)NC(=O)[C@H](C(C)C)NC(=O)[C@H](Cc2c[nH]c3ccccc23)NC(=O)[C@H](CC(=O)O)NC(=O)[C@H](Cc2ccc(O)cc2)NC(=O)[C@H](CC(N)=O)NC(=O)CSC[C@@H](C(=O)N[C@@H](C)C(N)=O)NC(=O)[C@H]([C@@H](C)O)NC(=O)[C@H](C(C)C)NC1=O [Compound 1181] ({CH2CO}-NYDWV[Bip]R[NMeA][dBta]RLVTCA-NH2; thioether N-14),0.34 µM
